Where “and” joins values, the source holds several entries; their conditions need not be identical. Equal values may be shown once. Entries after “also recorded” stand apart in the source; their conditions may differ.
Key:
[1] = Stability of the radioactive material; conditions: refrigerator
[2] = Biodistribution in rats after iv injection (organs); type: in vivo; conditions: for Biodistribution Blood / Biodistribution Brain / Biodistribution Heart / Biodistribution Kidney / Biodistribution Liver / Biodistribution Lung / Biodistribution Muscle / Biodistribution Skin / Biodistribution Spleen / Biodistribution Thyroid: iv
Method: Biodistribution in rats: Three rats per group were used for each biodistribution study. While under ether anesthesia, 0.2 mL of a saline solution containing 10 μCi of radioactive tracer was injected into the femoral vein. The rats were sacrificed at the time indicated by cardiac excision while under ether anesthesia. Organs of interest were removed and weighed, and the radioactivity was counted. The percent dose per organ was calculated by a comparison of the tissue counts to counts of 1% of the initial dose (100 times diluted aliquots of the injected material) measured at the same time.

serotonin transporters = target: T1, serotonin transporters (Rattus norvegicus, UniProt P31652); experiment: Regional brain distribution and specific binding ratio in rats; type: in vivo; conditions: for Ratio of (Region-Cerebellum)/Cerebellum, CX / Ratio of (Region-Cerebellum)/Cerebellum, HP / Ratio of (Region-Cerebellum)/Cerebellum, HY / Ratio of (Region-Cerebellum)/Cerebellum, ST / Regional brain distribution CB (cerebellum) / Regional brain distribution CX (cortex) / Regional brain distribution HP (hippocampus) / Regional brain distribution HY (hypothalamus) / Regional brain distribution ST (striatum): iv
T1 construct: from tissue; host or cells: rat brain in vivo (hypothalamus, cortex, striatum, hippocampus, cerebellum); ex vivo brain sections
T1 sequence (P31652 whole entry): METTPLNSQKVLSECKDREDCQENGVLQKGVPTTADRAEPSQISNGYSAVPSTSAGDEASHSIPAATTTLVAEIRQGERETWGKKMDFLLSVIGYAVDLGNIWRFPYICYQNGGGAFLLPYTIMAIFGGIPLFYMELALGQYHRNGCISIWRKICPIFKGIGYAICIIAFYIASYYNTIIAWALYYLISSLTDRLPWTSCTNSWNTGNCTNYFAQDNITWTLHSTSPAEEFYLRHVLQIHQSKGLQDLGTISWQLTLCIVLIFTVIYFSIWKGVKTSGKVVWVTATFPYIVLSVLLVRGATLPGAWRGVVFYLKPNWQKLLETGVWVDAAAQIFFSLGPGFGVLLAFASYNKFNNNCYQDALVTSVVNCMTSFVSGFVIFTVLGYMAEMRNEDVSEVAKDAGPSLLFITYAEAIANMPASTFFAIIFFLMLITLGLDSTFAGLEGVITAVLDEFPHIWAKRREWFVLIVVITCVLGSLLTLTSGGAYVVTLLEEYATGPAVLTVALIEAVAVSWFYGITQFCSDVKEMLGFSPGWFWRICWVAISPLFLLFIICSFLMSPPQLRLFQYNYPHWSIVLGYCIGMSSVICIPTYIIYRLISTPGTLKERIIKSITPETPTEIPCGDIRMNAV
Method: Regional brain distribution in rats was measured after an i.v. injection of the radioactive tracer. Samples from different brain regions: cortex (frontal plus occipital), striatum, hippocampus, cerebellum and hypothalamus were dissected, weighed and counted. The percentage dose/g of each sample was calculated by comparing sample counts with the counts of the diluted initial dose described above. The specific binding ratio in each region was obtained by dividing the % dose/gram values between region by that in the cerebellum ([region-cerebellum/cerebellum]). The cerebellum region containing little or no serotonin transporters was used as the background region.

SERT binding sites = target: T2, SERT binding sites (Rattus norvegicus, UniProt P31652); experiment: Ex vivo autoradiography of rat brain sections; type: in vivo, rats; conditions: rats, ex vivo after i.v. injection
T2 construct: from tissue; host or cells: rat brain in vivo (hypothalamus, cortex, striatum, hippocampus, cerebellum); ex vivo brain sections
T2 sequence (P31652 whole entry): as above

## CN(C)Cc1ccccc1Oc1ccc([125I])cc1N [[^125I]4, [^125I][^123I]2-(2-(Dimethylaminomethyl)phenoxy)-5-iodophenylamine]
[1]
  stability in a refrigerator: stable in a refrigerator for at least three weeks
[2]; 2 min post-injection
  brain uptake: 1.77 % dose and 1.77±0.07 % dose
[2]; 2 min
  Biodistribution Blood: 5.75 ± 0.54 % dose/organ
  Biodistribution Brain: 1.77 ± 0.07 % dose/organ
  Biodistribution Heart: 1.51 ± 0.13 % dose/organ
  Biodistribution Kidney: 4.27 ± 0.90 % dose/organ
  Biodistribution Liver: 5.71 ± 0.88 % dose/organ
  Biodistribution Lung: 17.2 ± 2.32 % dose/organ
  Biodistribution Muscle: 25.9 ± 4.82 % dose/organ
  Biodistribution Skin: 4.45 ± 0.52 % dose/organ
  Biodistribution Spleen: 0.44 ± 0.08 % dose/organ
  Biodistribution Thyroid: 0.10 ± 0.02 % dose/organ
[2]; 30 min
  Biodistribution Blood: 4.56 ± 0.20 % dose/organ
  Biodistribution Brain: 2.12 ± 0.15 % dose/organ
  Biodistribution Heart: 0.32 ± 0.04 % dose/organ
  Biodistribution Kidney: 2.67 ± 0.48 % dose/organ
  Biodistribution Liver: 7.10 ± 0.66 % dose/organ
  Biodistribution Lung: 3.56 ± 0.96 % dose/organ
  Biodistribution Muscle: 18.1 ± 0.55 % dose/organ
  Biodistribution Skin: 11.3 ± 0.78 % dose/organ
  Biodistribution Spleen: 0.84 ± 0.05 % dose/organ
  Biodistribution Thyroid: 0.15 ± 0.04 % dose/organ
[2]; 60 min
  Biodistribution Blood: 3.89 ± 0.28 % dose/organ
  Biodistribution Brain: 1.74 ± 0.08 % dose/organ
  Biodistribution Heart: 0.20 ± 0.01 % dose/organ
  Biodistribution Kidney: 1.67 ± 0.21 % dose/organ
  Biodistribution Liver: 5.79 ± 0.70 % dose/organ
  Biodistribution Lung: 1.79 ± 0.06 % dose/organ
  Biodistribution Muscle: 12.9 ± 0.84 % dose/organ
  Biodistribution Skin: 13.9 ± 1.00 % dose/organ
  Biodistribution Spleen: 0.47 ± 0.02 % dose/organ
  Biodistribution Thyroid: 0.41 ± 0.11 % dose/organ
[2]; 120 min
  Biodistribution Blood: 3.15 ± 0.44 % dose/organ
  Biodistribution Brain: 1.08 ± 0.06 % dose/organ
  Biodistribution Heart: 0.13 ± 0.01 % dose/organ
  Biodistribution Kidney: 1.24 ± 0.15 % dose/organ
  Biodistribution Liver: 4.90 ± 0.38 % dose/organ
  Biodistribution Lung: 0.88 ± 0.04 % dose/organ
  Biodistribution Muscle: 9.18 ± 0.65 % dose/organ
  Biodistribution Skin: 12.5 ± 2.14 % dose/organ
  Biodistribution Spleen: 0.27 ± 0.01 % dose/organ
  Biodistribution Thyroid: 0.96 ± 0.06 % dose/organ
[2]; 240 min
  Biodistribution Blood: 3.12 ± 0.32 % dose/organ
  Biodistribution Brain: 0.33 ± 0.02 % dose/organ
  Biodistribution Heart: 0.08 ± 0.02 % dose/organ
  Biodistribution Kidney: 0.61 ± 0.09 % dose/organ
  Biodistribution Liver: 3.52 ± 0.20 % dose/organ
  Biodistribution Lung: 0.37 ± 0.03 % dose/organ
  Biodistribution Muscle: 6.27 ± 0.06 % dose/organ
  Biodistribution Skin: 12.6 ± 0.48 % dose/organ
  Biodistribution Spleen: 0.13 ± 0.02 % dose/organ
  Biodistribution Thyroid: 2.34 ± 1.16 % dose/organ
[2]; 6 hrs
  Biodistribution Blood: 3.29 ± 0.27 % dose/organ
  Biodistribution Brain: 0.11 ± 0.01 % dose/organ
  Biodistribution Heart: 0.08 ± 0.00 % dose/organ
  Biodistribution Kidney: 0.55 ± 0.07 % dose/organ
  Biodistribution Liver: 3.59 ± 0.23 % dose/organ
  Biodistribution Lung: 0.25 ± 0.01 % dose/organ
  Biodistribution Muscle: 5.01 ± 0.42 % dose/organ
  Biodistribution Skin: 15.5 ± 1.50 % dose/organ
  Biodistribution Spleen: 0.11 ± 0.01 % dose/organ
  Biodistribution Thyroid: 2.68 ± 0.66 % dose/organ
[2]; 11 hrs
  Biodistribution Blood: 2.52 ± 0.47 % dose/organ
  Biodistribution Brain: 0.02 ± 0.00 % dose/organ
  Biodistribution Heart: 0.06 ± 0.00 % dose/organ
  Biodistribution Kidney: 0.40 ± 0.10 % dose/organ
  Biodistribution Liver: 2.64 ± 0.19 % dose/organ
  Biodistribution Lung: 0.16 ± 0.00 % dose/organ
  Biodistribution Muscle: 4.01 ± 0.85 % dose/organ
  Biodistribution Skin: 10.9 ± 4.62 % dose/organ
  Biodistribution Spleen: 0.09 ± 0.01 % dose/organ
  Biodistribution Thyroid: 5.15 ± 1.49 % dose/organ
[2]; 24 hrs
  Biodistribution Blood: 0.70 ± 0.06 % dose/organ
  Biodistribution Brain: 0.01 ± 0.00 % dose/organ
  Biodistribution Heart: 0.02 ± 0.00 % dose/organ
  Biodistribution Kidney: 0.17 ± 0.02 % dose/organ
  Biodistribution Liver: 1.83 ± 0.07 % dose/organ
  Biodistribution Lung: 0.04 ± 0.00 % dose/organ
  Biodistribution Muscle: 1.13 ± 0.13 % dose/organ
  Biodistribution Skin: 4.02 ± 0.26 % dose/organ
  Biodistribution Spleen: 0.05 ± 0.01 % dose/organ
  Biodistribution Thyroid: 4.61 ± 1.21 % dose/organ
Serotonin transporters; 60-240 min post i.v. injection
  hypothalamus uptake compared to other radioiodinated compounds: highest uptake in hypothalamus
Serotonin transporters; 2 min
  Ratio of (Region-Cerebellum)/Cerebellum, CX: 0.56 ± 0.55
  Ratio of (Region-Cerebellum)/Cerebellum, HP: 0.13 ± 0.22
  Ratio of (Region-Cerebellum)/Cerebellum, HY: 0.24 ± 0.17
  Ratio of (Region-Cerebellum)/Cerebellum, ST: 0.01 ± 0.27
  Regional brain distribution CB (cerebellum): 0.79 ± 0.21 % dose/g
  Regional brain distribution CX (cortex): 1.16 ± 0.14 % dose/g
  Regional brain distribution HP (hippocampus): 0.86 ± 0.07 % dose/g
  Regional brain distribution HY (hypothalamus): 0.96 ± 0.15 % dose/g
  Regional brain distribution ST (striatum): 0.77 ± 0.04 % dose/g
Serotonin transporters; 30 min
  Ratio of (Region-Cerebellum)/Cerebellum, CX: 0.96 ± 0.14
  Ratio of (Region-Cerebellum)/Cerebellum, HP: 0.68 ± 0.22
  Ratio of (Region-Cerebellum)/Cerebellum, HY: 1.06 ± 0.22
  Ratio of (Region-Cerebellum)/Cerebellum, ST: 0.83 ± 0.23
  Regional brain distribution CB (cerebellum): 0.64 ± 0.09 % dose/g
  Regional brain distribution CX (cortex): 1.25 ± 0.13 % dose/g
  Regional brain distribution HP (hippocampus): 1.06 ± 0.12 % dose/g
  Regional brain distribution HY (hypothalamus): 1.30 ± 0.06 % dose/g
  Regional brain distribution ST (striatum): 1.16 ± 0.10 % dose/g
Serotonin transporters; 60 min
  Ratio of (Region-Cerebellum)/Cerebellum, CX: 1.35 ± 0.07
  Ratio of (Region-Cerebellum)/Cerebellum, HP: 1.30 ± 0.05
  Ratio of (Region-Cerebellum)/Cerebellum, HY: 1.92 and 1.92 ± 0.20
  Ratio of (Region-Cerebellum)/Cerebellum, ST: 1.51 ± 0.12
  Regional brain distribution CB (cerebellum): 0.41 ± 0.03 % dose/g
  Regional brain distribution CX (cortex): 0.95 ± 0.07 % dose/g
  Regional brain distribution HP (hippocampus): 0.94 ± 0.08 % dose/g
  Regional brain distribution HY (hypothalamus): 1.18 ± 0.08 % dose/g
  Regional brain distribution ST (striatum): 1.02 ± 0.11 % dose/g
Serotonin transporters; 120 min
  Ratio of (Region-Cerebellum)/Cerebellum, CX: 1.48 ± 0.13
  Ratio of (Region-Cerebellum)/Cerebellum, HP: 2.19 ± 0.07
  Ratio of (Region-Cerebellum)/Cerebellum, HY: 3.49 and 3.49 ± 0.09
  Ratio of (Region-Cerebellum)/Cerebellum, ST: 2.53 ± 0.17
  Regional brain distribution CB (cerebellum): 0.21 ± 0.01 % dose/g
  Regional brain distribution CX (cortex): 0.51 ± 0.04 % dose/g
  Regional brain distribution HP (hippocampus): 0.65 ± 0.04 % dose/g
  Regional brain distribution HY (hypothalamus): 0.92 ± 0.06 % dose/g
  Regional brain distribution ST (striatum): 0.72 ± 0.01 % dose/g
Serotonin transporters; 240 min
  Ratio of (Region-Cerebellum)/Cerebellum, CX: 1.12 ± 0.17
  Ratio of (Region-Cerebellum)/Cerebellum, HP: 2.47 ± 0.28
  Ratio of (Region-Cerebellum)/Cerebellum, HY: 4.49 and 4.3 and 4.49 ± 0.12
  Ratio of (Region-Cerebellum)/Cerebellum, ST: 3.11 ± 0.35
  Regional brain distribution CB (cerebellum): 0.06 ± 0.00 % dose/g
  Regional brain distribution CX (cortex): 0.12 ± 0.01 % dose/g
  Regional brain distribution HP (hippocampus): 0.20 ± 0.02 % dose/g
  Regional brain distribution HY (hypothalamus): 0.32 ± 0.03 % dose/g
  Regional brain distribution ST (striatum): 0.24 ± 0.02 % dose/g
Serotonin transporters; 6 hrs
  Ratio of (Region-Cerebellum)/Cerebellum, CX: 0.58 ± 0.09
  Ratio of (Region-Cerebellum)/Cerebellum, HP: 1.21 ± 0.11
  Ratio of (Region-Cerebellum)/Cerebellum, HY: 2.64 and 2.64 ± 0.54
  Ratio of (Region-Cerebellum)/Cerebellum, ST: 1.56 ± 0.41
  Regional brain distribution CB (cerebellum): 0.027 ± 0.002 % dose/g
  Regional brain distribution CX (cortex): 0.042 ± 0.002 % dose/g
  Regional brain distribution HP (hippocampus): 0.059 ± 0.005 % dose/g
  Regional brain distribution HY (hypothalamus): 0.097 ± 0.015 % dose/g
  Regional brain distribution ST (striatum): 0.068 ± 0.005 % dose/g
Serotonin transporters; 11 hrs
  Ratio of (Region-Cerebellum)/Cerebellum, CX: 0.00 ± 0.16
  Ratio of (Region-Cerebellum)/Cerebellum, HP: 0.09 ± 0.08
  Ratio of (Region-Cerebellum)/Cerebellum, HY: 0.44 ± 0.19
  Ratio of (Region-Cerebellum)/Cerebellum, ST: 0.14 ± 0.13
  Regional brain distribution CB (cerebellum): 0.011 ± 0.0013 % dose/g
  Regional brain distribution CX (cortex): 0.010 ± 0.0010 % dose/g
  Regional brain distribution HP (hippocampus): 0.012 ± 0.0021 % dose/g
  Regional brain distribution HY (hypothalamus): 0.016 ± 0.0025 % dose/g
  Regional brain distribution ST (striatum): 0.012 ± 0.0000 % dose/g
Serotonin transporters; 24 hrs
  Ratio of (Region-Cerebellum)/Cerebellum, HY: 0.23 ± 0.15
  Regional brain distribution CB (cerebellum): 0.0049 ± 0.0009 % dose/g
  Regional brain distribution CX (cortex): 0.0040 ± 0.0007 % dose/g
  Regional brain distribution HP (hippocampus): 0.0040 ± 0.0005 % dose/g
  Regional brain distribution HY (hypothalamus): 0.0060 ± 0.0010 % dose/g
  Regional brain distribution ST (striatum): 0.0039 ± 0.0004 % dose/g
SERT binding sites
  regional distribution pattern in brain: distinctive distribution pattern in the brain, which reflected regional distribution of SERT binding sites; also recorded: excellent regional distribution pattern consistent with known SERT localization

From US20060083680A1, “Diphenyl ether derivatives and their use for imaging serotonin transporters” (The Trustees of the University of Pennsylvania, priority 2004, published 2006)
